Tests used:
[1] = cited from earlier work
[2] = Pharmacokinetic analysis of AMXT 1501 salt forms, single oral tablet dose; format: in vivo, beagle dogs
Description: Following dose administration all the animals had serial blood collections. Table 18 provides pharmacokinetic data obtained using the various salt forms of AMXT 1501 following single PO dosing to dogs. In Table 18, Group 1 received the free base form of AMXT 1501, Group 2 received the dicholate salt of AMXT 1501, Group 3 received the phosphate salt form of AMXT 1501, and Group 4 received the dicaprate salt form of AMXT 1501. […] In Table 18, SD refers to standard deviation and CV % refers to coefficient of variability.

[3] = cited from earlier work; remark: listed apart in the source
[4] = 3 h intravenous infusions; cited from earlier work
[5] = single PO dose 16.0 mg/kg (2 x 80 mg tablets), plasma AMXT 1501
[6] = single PO dose 16.0 mg/kg (2 x 80 mg tablets), plasma AMXT 1501, 16 mg/kg
[7] = single PO dose 16.0 mg/kg, plasma AMXT 1501, 16 mg/kg
[8] = single PO dose 16.0 mg/kg, t=24 hours, plasma AMXT 1501, 16 mg/kg

c1cc(CN2CCCNCCNCCCNCC2)ccc1CN1CCCNCCNCCCNCC1 [Mozobil]
clearance by ([1]; subcutaneous 40-360 μg/kg, healthy volunteers): ≤ 10 h
Plasma half-life ([1]; subcutaneous): 3 h

CCCCCCCCCCCCCCCC(=O)NCCCC[C@@H](N)C(=O)NCCCNCCCCNCCCN [AMXT 1501 free base]
Tmax Median [2, 5]: 6.00 h
Tmax Min. [2, 5]: 6.00 h
Cmax Max. [2, 6]: 468 ng/mL
Cmax Mean [2, 6]: 250 ng/mL
Cmax Median [2, 6]: 250 ng/mL
Cmax Min. [2, 6]: 31.3 ng/mL
Tmax Max. [2, 6]: 12.0 h
Tmax Mean [2, 6]: 8.00 h
t1/2 Max. [2, 7]: 9.76 h
t1/2 Mean [2, 7]: 9.76 h
t1/2 Median [2, 7]: 9.76 h
t1/2 Min. [2, 7]: 9.76 h
AUC0-t Max. [2, 8]: 8450 ng·h/mL
AUC0-t Mean [2, 8]: 4710 ng·h/mL
AUC0-t Median [2, 8]: 5330 ng·h/mL
AUC0-t Min. [2, 8]: 363 ng·h/mL
inter-animal consistency of plasma AMXT 1501 levels ([2]; single oral delivery, FIGS. 5A-5D): variable drug levels

CCNCCCCNCCCCNCCCCNCC [DEHSpm, N1,N14-diethylhomospermine]
drug in plasma ([3]; 2-4 hrs. post-injection): not observed
objective response ([3]; solid tumor patients): None of the 15 patients

N=C(N)NCCCCCCC(=O)NC(O)C(=O)NCCCCNCCCN (stereo not shown) [deoxyspergualin]
half-life [4]: 1.8 h
